Assay results: patent publication US20230131535A1, “ARYLMETHYLENE AROMATIC COMPOUNDS AS Kv1.3 POTASSIUM SHAKER CHANNEL BLOCKERS” (D. E. Shaw Research, LLC, priority 2019, published 2023)
Like-named read-outs stand apart in the source and are kept apart here.

Biological target: T1, Kv1.3 potassium channel (Homo sapiens, UniProt P22001)
T1 construct: expressed in transfected cells
Experiment: Kv1.3 potassium channel blocker activity, automated whole-cell patch clamp (Patchliner)
Format: cell-based
Conditions: CHO-K1 cells stably expressing Kv1.3, whole cell current, pulses -90 mV to +40 mV, read-out: Kv1.3_IC50
Method: Example 67. Evaluation of Kv1.3 Potassium Channel Blocker Activities
The assay described below is used to evaluate the disclosed compound's activities as Kv1.3 potassium channel blockers.
CHO-K1 cells stably expressing Kv1.3 were grown in DMEM containing 10% heat-inactivated FBS, 1 mM Sodium Pyruvate, 2 mM L-Glutamine and G418 (500 μg/ml). Cells were grown in culture flasks at 37° C. in a 5% CO2-humidified incubator.
The cells were bathed in an extracellular solution containing 140 mM NaCl, 4 mM KCl, 2 mM CaCl2), 1 mM MgCl2, 5 mM Glucose, 10 mM HEPES; pH adjusted to 7.4 with NaOH; 295-305 mOsm. The internal solution contained 50 mM KCl, 10 mM NaCl, 60 mM KF, 20 mM EGTA, 10 mM HEPES; pH adjusted to 7.2 with KOH; 285 mOsm. All compounds were dissolved in DMSO at 30 mM. Compound stock solutions were freshly diluted with external solution to concentrations of 30 nM, 100 nM, 300 nM, 1 μM, 3 μM, 10 μM, 30 μM and 100 μM. The highest content of DMSO (0.3%) was present in 100 μM.
The currents were evoked by applying 100 ms depolarizing pulses from −90 mV (holding potential) to +40 mV were applied with 0.1 Hz frequency. Control (compound-free) and compound pulse trains for each compound concentration applied contained 20 pulses. 10 second breaks were used between pulse trains (see Table 4 below).
Whole cell current recordings and compound application were enabled by means of an automated patch clamp platform Patchliner (Nanion Technologies GmbH). EPC 10 patch clamp amplifier (HIEKA Elektronik Dr. Schulze GmbH) along with Patchmaster software (HIEKA Elektronik Dr. Schulze GmbH) was used for data acquisition. Data were sampled at 10 kHz without filtering. Passive leak currents were subtracted online using a P/4 procedure (HEKA Elektronik Dr. Schulze GmbH). Increasing compound concentrations were applied consecutively to the same cell without washouts in between. Total compound incubation time before the next pulse train was not longer than 10 seconds. Peak current inhibition was observed during compound equilibration.
AUC and peak values were obtained with Patchmaster (HEKA Elektronik Dr. Schulze GmbH). To determine IC50, the last single pulse in the pulse train corresponding to a given compound concentration was used. Obtained AUC and peak values in the presence of compound were normalized to control values in the absence of compound. Using Origin (OridinLab), IC50 was derived from data fit to Hill equation: Icompound/Icontrol=(100−A)/(1+([compound]/IC50)nH)+A, where IC50 value is the concentration at which current inhibition is half-maximal, [compound] is the applied compound concentration, A is the fraction of current that is not blocked and nH is the Hill coefficient.

T1 sequence (P22001 whole entry): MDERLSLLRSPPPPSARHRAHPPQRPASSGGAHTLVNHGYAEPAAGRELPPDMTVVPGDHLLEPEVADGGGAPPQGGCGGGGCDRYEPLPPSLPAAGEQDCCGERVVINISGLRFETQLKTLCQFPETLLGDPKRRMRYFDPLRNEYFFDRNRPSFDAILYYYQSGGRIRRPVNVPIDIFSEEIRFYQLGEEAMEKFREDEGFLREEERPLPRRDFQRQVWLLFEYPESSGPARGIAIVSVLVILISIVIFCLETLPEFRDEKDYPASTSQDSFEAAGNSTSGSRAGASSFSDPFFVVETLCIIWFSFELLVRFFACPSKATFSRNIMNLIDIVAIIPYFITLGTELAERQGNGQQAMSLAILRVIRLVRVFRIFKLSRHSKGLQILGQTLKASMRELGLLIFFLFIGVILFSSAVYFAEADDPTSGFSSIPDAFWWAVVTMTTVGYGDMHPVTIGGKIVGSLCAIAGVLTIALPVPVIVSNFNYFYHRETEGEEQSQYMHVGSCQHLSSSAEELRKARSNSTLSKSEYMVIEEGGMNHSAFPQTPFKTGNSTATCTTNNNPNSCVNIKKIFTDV

Row | IC50 (Table 6) | IC50 (Table 7) | SMILES
1 |  | < 10 µM | C[C@H](NC(=O)[C@@H](O)CO)c1c(O)ccc(Cl)c1Cl [Compound 85, (2S)-N-[(1S)-1-(2,3-dichloro-6-hydroxyphenyl)ethyl]-2,3-dihydroxypropan-amide]
2 |  | < 1 µM | C[C@H](NC(=O)[C@H]1CCNC1)c1c(O)ccc(Cl)c1Cl [Compound 93, (3S)-N-[(1S)-1-(2,3-dichloro-6-hydroxyphenyl)ethyl]pyrrolidine-3-carboxamide]
3 |  | < 10 µM | C[C@H](NC(=O)C1CN(C(=O)CO)C1)c1c(O)ccc(Cl)c1Cl [Compound 88, N-[(1S)-1-(2,3-dichloro-6-hydroxyphenyl)ethyl]-1-(2-hydroxyacetyl) azetidine-3-carboxamide]
4 | < 30 µM |  | COc1ccc(Cl)c(Cl)c1C(N)c1ccncc1 (stereo not drawn) [Compound 70, 1-(2,3-dichloro-6-methoxyphenyl)-1-(pyridin-4-yl)methanamine]
5 |  | < 10 µM | C[C@H](NC(=O)C1(O)CNC1)c1c(O)ccc(Cl)c1Cl [Compound 87]
6 |  | < 1 µM | Cc1cc(O)c(C(N)CC(=O)NC2CNC2)cc1Cl (stereo not drawn) [Compound 97, 3-amino-N-(azetidin-3-yl)-3-(5-chloro-2-hydroxy-4-methylphenyl)propenamide]
7 |  | < 10 µM | C[C@H](NC(=O)[C@H](O)CO)c1c(O)ccc(Cl)c1Cl [Compound 84, (2R)-N-[(1S)-1-(2,3-dichloro-6-hydroxyphenyl)ethyl]-2,3-dihydroxypropan-amide]
8 |  | < 10 µM | CC(NC(=O)C1CNCCO1)c1c(O)ccc(Cl)c1Cl (stereo not drawn) [Compound 92, N-[1-(2,3-dichloro-6-hydroxyphenyl)ethyl]morpholine-2-carboxamide]
9 |  | < 1 µM | C[C@H](NC(=O)C1CCNCC1)c1c(O)ccc(Cl)c1Cl [Compound 90, N-[(1S)-1-(2,3-dichloro-6-hydroxyphenyl)ethyl]piperidine-4-carboxamide]
10 |  | < 10 µM | Cc1cc(O)c([C@H](C)NC(=O)C2CNC2)cc1Cl [Compound 82, N-[(1S)-1-(5-chloro-2-hydroxy-4-methylphenyl)ethyl]azetidine-3-carboxamide]
11 |  | < 1 µM | C[C@H](NC(=O)[C@@H]1CCCNC1)c1c(O)ccc(Cl)c1Cl [Compound 81, (3R)-N-[(1S)-1-(2,3-dichloro-6-hydroxyphenyl)ethyl]piperidine-3-carboxamide]
12 | < 10 µM |  | O=C(N[C@@H](c1ccncc1)c1c(O)ccc(Cl)c1Cl)[C@H]1CCCN1 (single isomer, unassigned) [Compound 67]
13 | < 30 µM |  | CC(C)C(=O)NC(c1ccncc1)c1c(O)ccc(Cl)c1Cl (stereo not drawn) [Compound 69, N-[(2,3-dichloro-6-hydroxyphenyl)(pyridin-4-yl)methyl]-2-methylpropanamide]
14 |  | < 10 µM | C[C@H](NC(=O)[C@H]1CCCNC1)c1c(O)ccc(Cl)c1Cl [Compound 80, (3S)-N-[(1S)-1-(2,3-dichloro-6-hydroxyphenyl)ethyl]piperidine-3-carboxamide]
15 |  | < 10 µM | C[C@H](NC(=O)C1CNC1)c1cc(Cl)c(Cl)cc1O [Compound 86, N-[(1S)-1-(4,5-dichloro-2-hydroxyphenyl)ethyl]azetidine-3-carboxamide]
16 |  | < 1 µM | C[C@@H](NC(=O)C1CNC1)c1c(O)ccc(Cl)c1Cl [Compound 77, N-[(1R)-1-(2,3-dichloro-6-hydroxyphenyl)ethyl]azetidine-3-carboxamide]

The remaining lines, values behind:

Row | SMILES | IC50 (Table 6) | IC50 (Table 7)
17 | Nc1cc(C(O)c2c(O)ccc(Cl)c2Cl)ccn1 (single isomer, unassigned) [Compound 44, 2-[(2-aminopyridin-4-yl)(hydroxy)methyl]-3,4-dichlorophenol] | < 30 µM | 
18 | NC(c1cn[nH]c1)c1cc(Cl)c(Cl)cc1O (stereo not drawn) [Compound 10, 2-[amino(1H-pyrazol-4-yl)methyl]-4,5-dichlorophenol] | < 10 µM | 
19 | O=C(c1ccncc1)c1c(O)ccc(Cl)c1Cl [Compound 61, 3,4-dichloro-2-(pyridine-4-carbonyl)phenol] | < 10 µM | 
20 | Oc1ccc(Cl)c(Cl)c1C(O)c1ccnc(N2CCOCC2)c1 (stereo not drawn) [Compound 58, 3,4-dichloro-2-[hydroxy[2-(morpholin-4-yl)pyridin-4-yl]methyl]phenol] | < 10 µM | 
21 | Oc1ccc(Cl)c(Cl)c1C(O)c1ccncn1 (stereo not drawn) [Compound 55, 3,4-dichloro-2-[hydroxy(pyrimidin-4-yl)methyl]phenol] | < 10 µM | 
22 | Oc1ccc(Cl)c(Cl)c1C(O)c1ccc2cc[nH]c2c1 (stereo not drawn) [Compound 48, 3,4-dichloro-2-[hydroxy(1H-indol-6-yl)methyl]phenol] | < 10 µM | 
23 | Oc1ccc(Cl)c(Cl)c1C(O)c1cnccn1 (stereo not drawn) [Compound 54, 3,4-dichloro-2-[hydroxy(pyrazin-2-yl)methyl]phenol] | < 10 µM | 
24 | CC(=O)NCc1cc(C(O)c2c(O)ccc(Cl)c2Cl)ccn1 (stereo not drawn) [Compound 33, N-([4-[(2,3-dichloro-6-hydroxyphenyl)(hydroxy)methyl]pyridin-2-yl]methyl)acetamide] | < 10 µM | 
25 | O=C(N[C@@H](c1ccncc1)c1c(O)ccc(Cl)c1Cl)[C@@H]1CCCN1 (single isomer, unassigned) [Compound 65] | < 30 µM | 
26 | CC(=O)NC(c1ccncc1)c1cc(Cl)c(Cl)cc1O (stereo not drawn) [Compound 19, N-[(4,5-dichloro-2-hydroxyphenyl)(pyridin-4-yl)methyl]acetamide] | < 10 µM | 
27 | NC(=O)c1cnccc1Cc1cc(Cl)c(Cl)cc1O [Compound 4, 4-[(4,5-dichloro-2-hydroxyphenyl)methyl]pyridine-3-carboxamide] | < 10 µM | 
28 | Oc1ccc(Cl)c(Cl)c1Cc1ccncc1 [Compound 22, 3,4-dichloro-2-[(pyridin-4-yl)methyl]phenol] | < 10 µM | 
29 | NC(c1ccccc1)c1c(O)ccc(Cl)c1Cl (stereo not drawn) [Compound 3, 2-[amino(phenyl)methyl]-3,4-dichlorophenol] | < 30 µM | 
30 | NC(c1ccccc1)c1cc(Cl)c(Cl)cc1O (stereo not drawn) [Compound 5, 2-[amino(phenyl)methyl]-4,5-dichlorophenol] | < 30 µM | 
31 | O=C(NC(c1ccncc1)c1c(O)ccc(Cl)c1Cl)c1cn[nH]c1 (stereo not drawn) [Compound 57, N-[(2,3-dichloro-6-hydroxyphenyl)(pyridin-4-yl)methyl]-1H-pyrazole-4-carboxamide] | < 30 µM | 
32 | NC(c1ccc(=O)[nH]c1)c1cc(Cl)c(Cl)cc1O (stereo not drawn) [Compound 15, 5-[amino(4,5-dichloro-2-hydroxyphenyl)methyl]-1,2-dihydropyridin-2-one] | < 10 µM | 
33 | Oc1ccc(Cl)c(Cl)c1C(O)c1c[nH]c2ccccc12 (stereo not drawn) [Compound 59, 3,4-dichloro-2-[hydroxy(1H-indol-3-yl)methyl]phenol] | < 30 µM | 
34 | Nc1ccc(Cl)c(Cl)c1C(=O)c1ccncc1 [Compound 62, 3,4-dichloro-2-(pyridine-4-carbonyl)aniline] | < 10 µM | 
35 | Cn1cc(C(O)c2c(O)ccc(Cl)c2Cl)ccc1=O (stereo not drawn) [Compound 60, 5-[(2,3-dichloro-6-hydroxyphenyl)(hydroxy)methyl]-1-methyl-1,2-dihydropyridin-2-one] | < 1 µM | 
36 | NC(=O)c1ccc(C(N)c2cc(Cl)c(Cl)cc2O)cc1 (stereo not drawn) [Compound 13, 4-[amino(4,5-dichloro-2-hydroxyphenyl)methyl]benzamide] | < 10 µM | 
37 | CC(c1ccncc1)c1c(O)ccc(Cl)c1Cl (stereo not drawn) [Compound 25, 3,4-dichloro-2-[1-(pyridin-4-yl)ethyl]phenol] | < 10 µM | 
38 | N#Cc1ccc(C(N)c2cc(Cl)c(Cl)cc2O)cc1 (stereo not drawn) [Compound 16, 4-[amino(4,5-dichloro-2-hydroxyphenyl)methyl]benzonitrile] | < 10 µM | 
39 | COCC(=O)NC(c1ccncc1)c1c(O)ccc(Cl)c1Cl (stereo not drawn) [Compound 63, N-[(2,3-dichloro-6-hydroxyphenyl)(pyridin-4-yl)methyl]-2-methoxyacetamide] | < 10 µM | 
40 | NC(=O)c1cc(C(O)c2c(O)ccc(Cl)c2Cl)ccn1 (stereo not drawn) [Compound 23, 4-[(2,3-dichloro-6-hydroxyphenyl)(hydroxy)methyl]pyridine-2-carboxamide] | < 10 µM | 
41 | Cc1cnccc1C(O)c1c(O)ccc(Cl)c1Cl (single isomer, unassigned) [Compound 43, 3,4-dichloro-2-[hydroxy(3-methylpyridin-4-yl)methyl]phenol] | < 30 µM | 
42 | Nc1ccc(C(N)c2c(O)ccc(Cl)c2Cl)cn1 (stereo not drawn) [Compound 14, 2-[amino(6-aminopyridin-3-yl)methyl]-3,4-dichlorophenol] | < 10 µM | 
